Molecular target: Full-length inactive AKT1 (Homo sapiens, UniProt P31749)
Experiment: Inactive Akt Alpha Screen Assay
Type: biochemical
Conditions: values not marked with "*"; read-out: Akt1 IC50, (AlphaScreen)
Summary of the method: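 AlphaScreen read-out (excitation 640 nm, emission 570 nm) after 90 min incubation at room temperature in the dark. Signal comes from crosstide phosphorylation by AKT1, which was activated by added PDK1, MAPKAPK2, ATP and lipid vesicles, captured via phospho-AKT substrate antibody and streptavidin beads.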

Full-length inactive AKT1, sequence (P31749 whole entry): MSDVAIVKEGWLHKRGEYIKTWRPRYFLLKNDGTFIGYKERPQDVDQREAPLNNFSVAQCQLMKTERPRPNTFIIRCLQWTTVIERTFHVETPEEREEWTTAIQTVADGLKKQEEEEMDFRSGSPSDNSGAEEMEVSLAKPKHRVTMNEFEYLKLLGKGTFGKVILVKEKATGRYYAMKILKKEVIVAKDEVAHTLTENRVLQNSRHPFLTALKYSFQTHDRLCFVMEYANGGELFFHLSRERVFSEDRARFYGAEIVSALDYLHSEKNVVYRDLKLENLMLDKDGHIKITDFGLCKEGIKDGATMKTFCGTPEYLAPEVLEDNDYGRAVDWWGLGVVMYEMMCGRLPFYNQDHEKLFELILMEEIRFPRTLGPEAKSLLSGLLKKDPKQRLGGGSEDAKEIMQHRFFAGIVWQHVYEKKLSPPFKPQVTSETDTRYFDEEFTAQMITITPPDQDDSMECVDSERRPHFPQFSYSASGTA

## Cc1cnc2c(c1)nc(-c1cccnc1N)n2-c1ccc(CNC(=O)c2cn(C)c3ccccc23)cc1 [Example 212, N-(4-(2-(2-aminopyridin-3-yl)-6-methyl-3H-imidazo[4,5-b]pyridin-3-yl)benzyl)-1-methyl-1H-indole-3-carboxamide]
  IC50: 0.2 µM

## Cc1cnc2c(c1)nc(-c1cccnc1N)n2-c1ccc(CNC(=O)CCC2CCCCC2)cc1 [Example 213, N-(4-(2-(2-aminopyridin-3-yl)-6-methyl-3H-imidazo[4,5-b]pyridin-3-yl)benzyl)-3-cyclohexylpropanamide]
  IC50: 0.48 µM

## Cc1cnc2c(c1)nc(-c1cccnc1N)n2-c1ccc(CNC(=O)c2ccccc2-n2cccc2)cc1 [Example 214, N-(4-(2-(2-aminopyridin-3-yl)-6-methyl-3H-imidazo[4,5-b]pyridin-3-yl)benzyl)-2-(1H-pyrrol-1-yl)benzamide]
  IC50: 0.023 µM

## Cc1cnc2c(c1)nc(-c1cccnc1N)n2-c1ccc(CNC(=O)C2Cc3ccccc3C2)cc1 [Example 215, N-(4-(2-(2-aminopyridin-3-yl)-6-methyl-3H-imidazo[4,5-b]pyridin-3-yl)benzyl)-2,3-dihydro-1H-indene-2-carboxamide]
  IC50: 0.73 µM

## Cc1cccc(C(=O)NCc2ccc(-n3c(-c4cccnc4N)nc4cc(C)cnc43)cc2)c1 [Example 216, N-(4-(2-(2-aminopyridin-3-yl)-6-methyl-3H-imidazo[4,5-b]pyridin-3-yl)benzyl)-3-methylbenzamide]
  IC50: 0.077 µM

## Cc1cnc2c(c1)nc(-c1cccnc1N)n2-c1ccc(CNC(=O)c2ccc(Cl)cc2F)cc1 [Example 217, N-(4-(2-(2-aminopyridin-3-yl)-6-methyl-3H-imidazo[4,5-b]pyridin-3-yl)benzyl)-4-chloro-2-fluorobenzamide]
  IC50: 0.084 µM

## Cc1cnc2c(c1)nc(-c1cccnc1N)n2-c1ccc(CNC(=O)c2ccccc2Cl)cc1 [Example 218, N-(4-(2-(2-aminopyridin-3-yl)-6-methyl-3H-imidazo[4,5-b]pyridin-3-yl)benzyl)-2-chlorobenzamide]
  IC50: 0.063 µM

## Cc1cnc2c(c1)nc(-c1cccnc1N)n2-c1ccc(CNC(=O)Cc2ccccc2)cc1 [Example 219, N-(4-(2-(2-aminopyridin-3-yl)-6-methyl-3H-imidazo[4,5-b]pyridin-3-yl)benzyl)-2-phenylacetamide]
  IC50: 0.23 µM

## CC(=O)Nc1ccc(C(=O)NCc2ccc(-n3c(-c4cccnc4N)nc4cc(C)cnc43)cc2)cc1 [Example 220, 4-acetamido-N-(4-(2-(2-aminopyridin-3-yl)-6-methyl-3H-imidazo[4,5-b]pyridin-3-yl)benzyl)benzamide]
  IC50: 0.054 µM

## COc1ccccc1C(=O)NCc1ccc(-n2c(-c3cccnc3N)nc3cc(C)cnc32)cc1 [Example 221, N-(4-(2-(2-aminopyridin-3-yl)-6-methyl-3H-imidazo[4,5-b]pyridin-3-yl)benzyl)-2-methoxybenzamide]
  IC50: 0.26 µM

## Cc1cnc2c(c1)nc(-c1cccnc1N)n2-c1ccc(CNC(=O)c2ccc(N(C)C)cc2)cc1 [Example 222, N-(4-(2-(2-aminopyridin-3-yl)-6-methyl-3H-imidazo[4,5-b]pyridin-3-yl)benzyl)-4-(dimethylamino)benzamide]
  IC50: 0.043 µM

## Cc1cnc2c(c1)nc(-c1cccnc1N)n2-c1ccc(CNC(=O)c2ccccc2C)cc1 [Example 223, N-(4-(2-(2-aminopyridin-3-yl)-6-methyl-3H-imidazo[4,5-b]pyridin-3-yl)benzyl)-2-methylbenzamide]
  IC50: 0.03 µM

## Cc1cnc2c(c1)nc(-c1cccnc1N)n2-c1ccc(CNC(=O)c2cccc3ccccc23)cc1 [Example 224, N-(4-(2-(2-aminopyridin-3-yl)-6-methyl-3H-imidazo[4,5-b]pyridin-3-yl)benzyl)-1-naphthamide]
  IC50: 0.05 µM

## Cc1cnc2c(c1)nc(-c1cccnc1N)n2-c1ccc(CNC(=O)c2ccccc2Cc2ccccc2)cc1 [Example 225, N-(4-(2-(2-aminopyridin-3-yl)-6-methyl-3H-imidazo[4,5-b]pyridin-3-yl)benzyl)-2-benzylbenzamide]
  IC50: 0.011 µM
